{
  "source": "ChEMBL document CHEMBL3046296",
  "about": "“Development of a New Herbicide, Indanofan” (J Pestic Sci, 2004)",
  "key": {"Echinochloa oryzicola [1]": {"test_system": "Echinochloa oryzicola", "assay": "Pre-emergence herbicide activity against Echinochloa oryzicola up to three-leaf stage", "type": "functional"}, "Poa annua": {"test_system": "Poa annua", "assay": "Pre-emergence herbicide activity against Poa annua up to two-leaf stage", "type": "functional"}, "[2]": {"assay": "Octanol-water partition co-efficient, log P of the compound in water at 25 degC", "type": "physicochemical"}, "Zoysia matrella": {"test_system": "Zoysia matrella", "assay": "Pre-emergence herbicide activity against Zoysia matrella measured 7 days after planting", "type": "functional"}, "Echinochloa oryzicola [3]": {"test_system": "Echinochloa oryzicola", "assay": "Pre-emergence herbicide activity against Echinochloa oryzicola after 42 days", "type": "functional"}, "Echinochloa crus-galli": {"test_system": "Echinochloa crus-galli", "assay": "Pre-emergence herbicide activity against Echinochloa crus-galli (barnyard grass) up to 3-leaf stage", "type": "functional"}},
  "data": [
    {"smiles": "CCC1(CC2(c3cccc(Cl)c3)CO2)C(=O)c2ccccc2C1=O", "note": "(stereo not drawn) [(RS)-INDANOFAN]", "values": [
      {"measurement": "Activity", "setting": "Echinochloa oryzicola [1]", "value": 0.15, "unit": "KgAi/ha"},
      {"measurement": "Activity", "setting": "Poa annua", "value": 0.5, "unit": "KgAi/ha"},
      {"measurement": "logP", "setting": "[2]", "value": 3.59},
      {"measurement": "Activity", "setting": "Zoysia matrella", "value": 1, "unit": "KgAi/ha"},
      {"measurement": "Activity", "setting": "Echinochloa oryzicola [3]", "value": 0.15, "unit": "KgAi/ha"},
      {"measurement": "Activity", "setting": "Echinochloa crus-galli", "value": 0.15, "unit": "KgAi/ha"}
    ]}
  ]
}
